Columns and labels:
[1] = test system: HIV-1 strain III-B (X4 strain); assay: Viral entry/binding inhibition assay (VBI), strain IIIB; assay type: cell-based; conditions: Human immunodeficiency virus 1, Series 2, P4-R5 cells, 2 hour incubation, read-out: 50% Effective Concentrations (IC50)
Description: (§1) Viral entry inhibition assay (VBI): Cell-free HIV-1 (strain III-B: X4 strain; or strain BaL: R5 strain) was incubated with compound and P4-R5 cells for 2 hours at 37° C., followed by washing and 48 hour incubation.

[2] = test system: HIV-1 strain BaL (R5 strain); assay: Viral entry/binding inhibition assay (VBI), strain BaL; assay type: cell-based; conditions: Human immunodeficiency virus 1, Series 2, P4-R5 cells, 2 hour incubation, read-out: 50% Effective Concentrations (IC50)
Description: as §1

[3] = test system: HIV-1 infected SupTi cells (strain IIIB); assay: Cell to cell transmission assay (CTC); assay type: cell-based; conditions: Human immunodeficiency virus 1, IIIB, Series 2, P4-R5 cells, 2 hour incubation, read-out: 50% Effective Concentrations (IC50)
Description: Cell to cell transmission assay (CTC): HIV-1 infected SupTi cells (strain IIIB), killed prior to exposure, were incubated with compound and P4-R5 cells for 2 hours at 37° C., followed by washing and 48 hour incubation.

[4] = test system: HSV-2; assay: HSV-2 viral binding inhibition assay; assay type: cell-based; conditions: Human alphaherpesvirus 2; Vero cells, plaque assay
Description: Confluent Vero cells were incubated with different concentrations of ciclopiroxolamine at 37° C. for 1 hour. 200 pfu of HSV-2 were then added to the cells in the presence of test compound and the cells were incubated at 37° C. for 1 hour. The infected cells were washed with PBS and overlaid with methylcellulose (no drug) for a plaque assay.

[5] = test system: HSV-2; assay: HSV-2 virucidal assay; assay type: cell-based; conditions: Human alphaherpesvirus 2, 1 h, at 400 μg/ml (highest concentration tested); 60 min at 37° C.
Description: The virucidal activities of ciclopiroxolamine against HSV-2 were tested by mixing various concentrations of the test compound with 2×10^5 PFU of HSV-2, respectively, and incubating at 37° C. for 60 min. The culture medium was included as a […] control. At the end of incubation, the mixtures were diluted 1 in 1000 with culture medium. The infectivity of treated virus was determined by a standard viral plaque assay. Briefly, confluent Vero cells were washed with PBS and subsequently infected with 1 ml of treated mixture at 37° C. for 1 h. After viral inoculum was removed, the infected cells were washed with PBS and overlaid with 0.5% methylcellulose in culture medium. The infected cells were incubated at 37° C. for 2 days to allow the plaques to develop.

[6] = test system: Gardnerella vaginalis; assay: Anaerobe inhibition assay; assay type: cell-based; conditions: 2 strains, read-out: Minimum Inhibitory Concentrations (MICs)
[7] = test system: Mobiluncus curtisii; assay: Anaerobe inhibition assay; assay type: cell-based; conditions: 2 strains, read-out: Minimum Inhibitory Concentrations (MICs)
[8] = test system: Bacteroides fragilis; assay: Anaerobe inhibition assay; assay type: cell-based; conditions: 1 strain, read-out: Minimum Inhibitory Concentrations (MICs)
[9] = test system: Bacteroides thetaiotaomicron; assay: Anaerobe inhibition assay; assay type: cell-based; conditions: 1 strain, read-out: Minimum Inhibitory Concentrations (MICs)
Description: Working in an anaerobic chamber, the anaerobes were suspended into brucella broth to the turbidity of the 0.5 McFarland standard and pipetted into the wells of the Steers replicator head, removed from the chamber and stamped onto the supplemented Brucella agar plates containing the serial dilutions of the antimicrobials and the growth control plates. The final inoculum was 10^5 cfu/spot.
(§2) The anaerobes were incubated in an anaerobic chamber at 37° C. for 2 days; aerobes were incubated in ambient air at 36° C. for 20h.

[10] = test system: Eubact lentum; assay: Anaerobe inhibition assay; assay type: cell-based; conditions: 2 strains, read-out: Minimum Inhibitory Concentrations (MICs)
[11] = test system: Peptostrep anaerobius; assay: Anaerobe inhibition assay; assay type: cell-based; conditions: 1 strain, read-out: Minimum Inhibitory Concentrations (MICs)
[12] = test system: Porphyromonas levii; assay: Anaerobe inhibition assay; assay type: cell-based; conditions: 2 strains, read-out: Minimum Inhibitory Concentrations (MICs)
[13] = test system: Prevotella disiens; assay: Anaerobe inhibition assay; assay type: cell-based; conditions: 2 strains, read-out: Minimum Inhibitory Concentrations (MICs)
[14] = test system: Staph. aureus; assay: Aerobe inhibition assay; assay type: cell-based, Staphylococcus aureus; conditions: 3 strains
Description: The aerobic organisms were suspended into saline to the turbidity of the 0.5 McFarland standard, diluted 1:10, pipetted into the wells of the Steers replicator head, and stamped onto the Mueller Hinton agar plates containing the serial dilutions of the antimicrobials.
as §2

[15] = test system: Gardnerella vaginalis, Mobiluncus spp., Bacteroides spp., Clostridium perfringes, Fusobacterium nucleatum, Peptostreptococcus spp., Porphyromonas spp., and …; assay: Anaerobe inhibition assay, all anaerobes tested; assay type: cell-based
[16] = test system: Lactobacilli (L. jensii, L. gasseri, L. acidophilus, L. salivarius); assay: Lactobacillus Steers time-kill (TK) assay, all strains; assay type: cell-based
[17] = Cytotoxicity assay; assay type: cell-based
Description: The cells listed in Table 4 were incubated for the indicated period of time with different concentrations of ciclopiroxolamine and cell viability was measured by the 3-(4,5-dimethylthiazol-2-yl)-2,5-diphenyltetrazolium bromide (MTT) assay or by treatment with propidium iodide and fluorescence. Percent viability was calculated with respect to the viability of mock-exposed cells (cells incubated without compounds).
In the MTT assay, the effect of each agent on cell viability was determined using an assay in which dehydrogenases in viable cells cleave the compound 3-(4,5-dimethylthiazol-2-yl)-2,5-diphenyltetrazolium bromide (MTT), yielding a purple product (formazan) which can be measured spectrophotometrically (Pauwels et al., 1988). Cells were seeded into 96 well plates at a density of 3×10^4 cells/well 24 hours prior to introduction of the microbicides. Agents were diluted in as previously indicated. Agents were added to triplicate wells in half-log serial dilutions. Cells were incubated in the absence or presence of each agent at 37° C. under 5% CO2 and 90% humidity for 2 hours. At the conclusion of each experiment, cells were washed, replenished with fresh medium and incubated with MTT (250 μl/well) for 2 hours at 37° C. Following removal of the medium (by aspiration), intracellular formazan crystals were solubilized with 10% Triton X-100 in acidified isopropanol. The resulting solutions were assayed spectrophotometrically at 570 nm and corrected for non-specific absorption at 690 nm. In this assay, measured absorbance is proportional to the viable cell number, and inversely proportional to the degree of cytotoxicity.

[18] = test system: spermatozoa; assay: Sperm immobilization assay; assay type: cell-based
Description: To assess sperm-immobilizing activity, compounds were incubated with sperm for 30 seconds in two fold serial dilutions. Those dilutions that immobilized all screened spermatozoa were further diluted several times in buffer and incubated at 37° C., 5% CO2, for 1 h, to verify any possible recovery of motility. Only those dilutions (compound concentrations) that immobilized all spermatozoa with no recovery of motility were considered “positive” and used to calculate the compound's minimum effective concentration (MEC).

## Cc1cc(C2CCCCC2)n(O)c(=O)c1.NCCO [CO, 6-Cyclohexyl-1-hydroxy-4-methyl-2-(1H)-pyridone ethanolamine salt]
[1]
  IC50: 45.5 µg/mL
[2]
  IC50: 6.9 µg/mL
[3]
  IC50: 97.4 µg/mL
[4]
  IC50: 153 µg/mL
[5]
  inhibition at 400 µg/mL: 40%
[6]
  MIC: 80 µg/mL
[7]
  MIC: 40 µg/mL
[8]
  MIC: 40 µg/mL
[9]
  MIC: 40 µg/mL
[10]
  MIC: 40 µg/mL
[11]
  MIC: 40 µg/mL
[12]
  MIC: 40 µg/mL
[13]
  MIC: 40 µg/mL
[14]
  Minimum Inhibitory Concentrations (MICs): 80 µg/mL
[14]; Staphylococcus aureus, read-out: Minimum Inhibitory Concentrations (MICs)
  MIC: 40 µg/mL
[15]
  minimal inhibitory concentrations (MICs), range over all anaerobes tested: 40 to 80 µg/mL
[16]
  effect on lactobacilli (summary in words): inhibits the growth of lactobacilli but does not kill them
[17]; African green monkey, Vero cells, Series 4, 2 hour incubation
  CC50 at 2 h: > 200 µg/mL
[17]; human, P4-R5 cells, Series 2, P4-R5, 2 hour incubation, 100 μg/ml highest conc tested
  CC50 at 2 h: > 100 µg/mL
[17]; human, VK-2/E6E7 cells (vaginal epithelium cell line), Series 2, VK-2/E6E7, 2 hour incubation
  CC50 at 2 h: 100 µg/mL
[18]
  cytotoxicity towards spermatozoa: very little cytotoxicity towards spermatozoa
[18]; 30 seconds incubation with sperm
  Sperm immobilization activity, MEC (minimum effective concentration): MEC: 1,200-8,800 μg/ml
